In publication PMC6405326 (ACS chemical neuroscience, 2018):

Tests used:
mouse MOR [1] = target: T1, mouse MOR (Mus musculus, UniProt P42866); assay: Competitive radioligand binding assay, MOR
mouse KOR = mouse KOR (Mus musculus, UniProt P33534); assay: Competitive radioligand binding assay, KOR
mouse DOR = mouse DOR (Mus musculus, UniProt P32300); assay: Competitive radioligand binding assay, DOR
mouse MOR [2] = target: T1, mouse MOR; assay: [35S]-GTPγS functional assay, MOR-CHO membranes; conditions: for Emax: read-out: MOR [35S]-GTPγS assay % Emax of DAMGO, relative to 3 μM DAMGO; for MOR [35S]-GTPγS assay % Emax of DAMGO: relative to 3 μM DAMGO
male Swiss Webster mice [3] = assay: Warm-water tail immersion assay, antinociceptive effect; conditions: 10 mg/kg s.c., tested 20 min after injection, 56 °C water
[4] = cited from earlier work
[5] = system: KOR-DOR and KOR-MOR heterodimers; conditions: HEK293 cells; cited from earlier work
male Swiss Webster mice [6] = assay: Warm-water tail immersion assay, antagonism of morphine's antinociceptive effect; conditions: dose-response study, s.c.

Structure (SMILES)	Ki (mouse MOR [1]) [nM]	Ki (mouse KOR) [nM]	Ki (mouse DOR) [nM]	EC50 (mouse MOR [2]) [nM]	Emax (mouse MOR [2]) [%]	Antinociceptive effect (% MPE) (male Swiss Webster mice [3])	MOR [35S]-GTPγS assay % Emax of DAMGO (mouse MOR [2])	Antinociceptive effect (% MPE) (male Swiss Webster mice [3]; listed as INTA)	Antinociception [4]	Aversive effects in the conditioned place preference assay [4]	Tolerance and dependence [4]	Activation of KOR-DOR and KOR-MOR heterodimers [5]	MOR [35S]-GTPγS assay EC50 (mouse MOR [2]; mMOR-CHO membranes)	AD50 (95% CL), opioid antagonist effect against morphine (male Swiss Webster mice [6])
O=C(N[C@H]1CC[C@@]2(O)[C@H]3Cc4ccc(O)c5c4[C@@]2(CCN3CC2CC2)[C@H]1O5)c1ccc2[nH]ccc2c1 [Compound 13, 17-Cyclopropylmethyl-3,14β-dihydroxy-4,5α-epoxy-6α-(indole-5-carboxamido)morphinan]	0.76 ± 0.11	3.45 ± 0.99	26.7 ± 7.72	1.55 ± 0.08	32.2 ± 1.26	–	–	–	–	–	–	–	–	–
O=C(CCc1c[nH]c2ccccc12)N[C@@H]1CC[C@@]2(O)[C@H]3Cc4ccc(O)c5c4[C@@]2(CCN3CC2CC2)[C@H]1O5 [Compound 8, 17-Cyclopropylmethyl-3,14β-dihydroxy-4,5α-epoxy-6β-[3-(indol-3-yl)propanamido)morphinan]	0.17 ± 0.01	0.39 ± 0.05	77.1 ± 28.3	1.73 ± 1.1	45.1 ± 5.18	–	–	–	–	–	–	–	–	–
O=C(N[C@@H]1CC[C@@]2(O)[C@H]3Cc4ccc(O)c5c4[C@@]2(CCN3CC2CC2)[C@H]1O5)c1ccc2cc[nH]c2c1 [Compound 5, 17-Cyclopropylmethyl-3,14β-dihydroxy-4,5α-epoxy-6β-(indole-6-carboxamido)morphinan]	0.25 ± 0.04	0.17 ± 0.01	6.23 ± 0.83	0.19 ± 0.02	71.8 ± 4.37	low % MPE values	high MOR efficacies	–	–	–	–	–	–	–
O=C(N[C@@H]1CC[C@@]2(O)[C@H]3Cc4ccc(O)c5c4[C@@]2(CCN3CC2CC2)[C@H]1O5)c1ccc2[nH]ccc2c1 [Compound 4, 17-Cyclopropylmethyl-3,14β-dihydroxy-4,5α-epoxy-6β-(indole-5-carboxamido)morphinan]	0.26 ± 0.04	0.51 ± 0.04	17.7 ± 4.78	2.98 ± 1.25	22.3 ± 3.5	–	–	–	–	–	–	–	–	–
O=C(N[C@@H]1CC[C@@]2(O)[C@H]3Cc4ccc(O)c5c4[C@@]2(CCN3CC2CC2)[C@H]1O5)c1cccc2cc[nH]c12 [Compound 6, 17-Cyclopropylmethyl-3,14β-dihydroxy-4,5α-epoxy-6β-(indole-7-carboxamido)morphinan]	–	0.52 ± 0.09	30.4 ± 9.49	–	–	–	37.94 ±5.85%	–	–	–	–	–	–	–
O=C(N[C@H]1CC[C@@]2(O)[C@H]3Cc4ccc(O)c5c4[C@@]2(CCN3CC2CC2)[C@H]1O5)c1cc2ccccc2[nH]1 [Compound 10, 17-Cyclopropylmethyl-3,14β-dihydroxy-4,5α-epoxy-6α-(indole-2-carboxamido)morphinan]	0.36 ± 0.03	0.93 ± 0.13	14.2 ± 2.78	6.75 ± 3.2	36.9 ± 2.4	–	–	–	–	–	–	–	–	–
O=C(Cc1c[nH]c2ccccc12)N[C@@H]1CC[C@@]2(O)[C@H]3Cc4ccc(O)c5c4[C@@]2(CCN3CC2CC2)[C@H]1O5 [Compound 7, 17-Cyclopropylmethyl-3,14β-dihydroxy-4,5α-epoxy-6β-[2-(indol-3-yl)acetamido)morphinan]	0.24 ± 0.03	–	37 ± 1.21	1.44 ± 0.75	48.3 ± 4.45	–	–	–	–	–	–	–	–	–
O=C(N[C@H]1CC[C@@]2(O)[C@H]3Cc4ccc(O)c5c4[C@@]2(CCN3CC2CC2)[C@H]1O5)c1ccc2cc[nH]c2c1 [Compound 14, 17-Cyclopropylmethyl-3,14β-dihydroxy-4,5α-epoxy-6α-(indole-6-carboxamido)morphinan]	0.43 ± 0.05	1.63 ± 0.28	12.8 ± 3.36	6.06 ± 1.25	26.6 ± 0.66	–	–	–	–	–	–	–	–	–
O=C(CCCc1c[nH]c2ccccc12)N[C@@H]1CC[C@@]2(O)[C@H]3Cc4ccc(O)c5c4[C@@]2(CCN3CC2CC2)[C@H]1O5 [Compound 9, 17-Cyclopropylmethyl-3,14β-dihydroxy-4,5α-epoxy-6β-[4-(indol-3-yl)butanamido)morphinan]	0.2 ± 0.03	–	25.3 ± 4.34	1.04 ± 0.17	–	–	36.29 ±4.11%	–	–	–	–	–	–	–
O=C(CCCc1c[nH]c2ccccc12)N[C@H]1CC[C@@]2(O)[C@H]3Cc4ccc(O)c5c4[C@@]2(CCN3CC2CC2)[C@H]1O5 [Compound 18, 17-Cyclopropylmethyl-3,14β-dihydroxy-4,5α-epoxy-6α-[4-(indol-3-yl)butanamido)morphinan]	0.29 ± 0.04	0.15 ± 0.03	6.73 ± 0.4	1.89 ± 1.04	54.9 ± 6.35	–	–	–	–	–	–	–	–	–
O=C(N[C@H]1CC[C@@]2(O)[C@H]3Cc4ccc(O)c5c4[C@@]2(CCN3CC2CC2)[C@H]1O5)c1c[nH]c2ccccc12 [Compound 11, 17-Cyclopropylmethyl-3,14β-dihydroxy-4,5α-epoxy-6α-(indole-3-carboxamido)morphinan]	0.29 ± 0.04	0.98 ± 0.13	10.5 ± 2.89	1 ± 0.13	33.3 ± 3.51	–	–	–	–	–	–	–	–	–
O=C(N[C@@H]1CC[C@@]2(O)[C@H]3Cc4ccc(O)c5c4[C@@]2(CCN3CC2CC2)[C@H]1O5)c1cc2ccccc2[nH]1 [Compound 1, 17-Cyclopropylmethyl-3,14β-dihydroxy-4,5α-epoxy-6β-(indole-2-carboxamido)morphinan]	0.29 ± 0.04	0.18	1.54 ± 0.47	0.21 ± 0.01	92.4 ± 2.81	–	full agonist	potent antinociception	potent antinociception	no aversive effects	devoid of tolerance and dependence	activated	subnanomolar potency	–
O=C(N[C@@H]1CC[C@@]2(O)[C@H]3Cc4ccc(O)c5c4[C@@]2(CCN3CC2CC2)[C@H]1O5)c1cccc2[nH]ccc12 [Compound 3, 17-Cyclopropylmethyl-3,14β-dihydroxy-4,5α-epoxy-6β-(indole-4-carboxamido)morphinan]	0.24 ± 0.03	–	49.8 ± 12.7	8.16 ± 4.72	–	–	–	–	–	–	–	–	–	–
O=C(N[C@H]1CC[C@@]2(O)[C@H]3Cc4ccc(O)c5c4[C@@]2(CCN3CC2CC2)[C@H]1O5)c1cccc2[nH]ccc12 [Compound 12, 17-Cyclopropylmethyl-3,14β-dihydroxy-4,5α-epoxy-6α-(indole-4-carboxamido)morphinan]	0.26 ± 0.04	–	9.26 ± 2.83	4.99 ± 2.19	–	–	28.90 ±0.95%	–	–	–	–	–	–	–
O=C(Cc1c[nH]c2ccccc12)N[C@H]1CC[C@@]2(O)[C@H]3Cc4ccc(O)c5c4[C@@]2(CCN3CC2CC2)[C@H]1O5 [Compound 16, 17-Cyclopropylmethyl-3,14β-dihydroxy-4,5α-epoxy-6α-[2-(indol-3-yl)acetamido)morphinan]	0.84 ± 0.12	3.14 ± 0.45	9.17 ± 2.67	4.75 ± 0.31	34.1 ± 0.97	–	–	–	–	–	–	–	–	–
O=C(CCc1c[nH]c2ccccc12)N[C@H]1CC[C@@]2(O)[C@H]3Cc4ccc(O)c5c4[C@@]2(CCN3CC2CC2)[C@H]1O5 [Compound 17, 17-Cyclopropylmethyl-3,14β-dihydroxy-4,5α-epoxy-6α-[3-(indol-3-yl)propanamido)morphinan]	0.44 ± 0.04	1.36 ± 0.18	25.1 ± 6.83	2.09 ± 0.19	41.5 ± 6.14	–	–	–	–	–	–	–	–	–
O=C(N[C@@H]1CC[C@@]2(O)[C@H]3Cc4ccc(O)c5c4[C@@]2(CCN3CC2CC2)[C@H]1O5)c1c[nH]c2ccccc12 [Compound 2, 17-Cyclopropylmethyl-3,14β-dihydroxy-4,5α-epoxy-6β-(indole-3-carboxamido)morphinan]	0.19 ± 0.02	–	7.17 ± 1.23	0.22 ± 0.07	79.5 ± 7.41	low % MPE values	high MOR efficacies	–	–	–	–	–	–	–
O=C(N[C@H]1CC[C@@]2(O)[C@H]3Cc4ccc(O)c5c4[C@@]2(CCN3CC2CC2)[C@H]1O5)c1cccc2cc[nH]c12 [Compound 15, 17-Cyclopropylmethyl-3,14β-dihydroxy-4,5α-epoxy-6α-(indole-7-carboxamido)morphinan]	–	–	–	–	–	–	–	–	–	–	–	–	–	2.07 (0.40−10.74) mg/kg
